According to paper PMC5218480 (PLoS ONE, 2017):

System: MV-4-11 cells
Assay: Gene expression microarray analysis (Affymetrix PrimeView) and GSEA
Type: cell-based, human
Parameters: RFU PODN (11730768_x_at) / Fold change /veh PODN (11730768_x_at) / RFU LINC00158 (11744669_a_at) / Fold change /veh LINC00158 (11744669_a_at) / RFU DUSP10 (11751237_a_at) / Fold change /veh DUSP10 (11751237_a_at) / RFU ID3 (11757404_x_at) / Fold change /veh ID3 (11757404_x_at) / RFU PLEKHG5 (11737974_s_at) / Fold change /veh PLEKHG5 (11737974_s_at) / RFU LRRC4B (11730491_at) / Fold change /veh LRRC4B (11730491_at) / RFU GIMAP4 (11747438_a_at) / Fold change /veh GIMAP4 (11747438_a_at) / RFU KRT8 (11758183_x_at) / Fold change /veh KRT8 (11758183_x_at) / RFU CNN1 (11734310_a_at) / Fold change /veh CNN1 (11734310_a_at) / RFU VPS37D (11726825_at) / Fold change /veh VPS37D (11726825_at) / RFU C10orf10 (11716522_x_at) / Fold change /veh C10orf10 (11716522_x_at) / RFU KIR2DL2 /// KIR2DL4 /// KIR2DL5A /// KIR2DL5B /// KIR2DS1 /// KIR2DS2 /// KIR2DS3 /// KIR2DS4 /// KIR3DL3 /// KIR3DL3 /// KIR3DS1 (11738374_at) / Fold change /veh KIR2DL2 /// KIR2DL4 /// KIR2DL5A /// KIR2DL5B /// KIR2DS1 /// KIR2DS2 /// KIR2DS3 /// KIR2DS4 /// KIR3DL3 /// KIR3DL3 /// KIR3DS1 (11738374_at) / RFU C1QL1 (11718748_at) / Fold change /veh C1QL1 (11718748_at) / RFU TMPRSS4 (11747572_a_at) / Fold change /veh TMPRSS4 (11747572_a_at) / RFU HAMP (11756126_x_at) / Fold change /veh HAMP (11756126_x_at) / RFU RNFT2 (11725882_a_at) / Fold change /veh RNFT2 (11725882_a_at) / RFU NR4A2 (11747474_a_at) / Fold change /veh NR4A2 (11747474_a_at) / RFU ABCC12 (11746883_a_at) / Fold change /veh ABCC12 (11746883_a_at) / RFU TMEM136 (11760407_x_at) / Fold change /veh TMEM136 (11760407_x_at) / RFU CLDN22 /// WWC2 (11732394_at) / Fold change /veh CLDN22 /// WWC2 (11732394_at) / RFU HLA-DPB1 (11760878_x_at) / Fold change /veh HLA-DPB1 (11760878_x_at) / RFU SPINT1 (11716480_a_at) / Fold change /veh SPINT1 (11716480_a_at) / RFU GAP43 (11754022_s_at) / Fold change /veh GAP43 (11754022_s_at) / RFU A4GNT (11735810_at) / Fold change /veh A4GNT (11735810_at) / RFU PRB3 (11715151_x_at) / Fold change /veh PRB3 (11715151_x_at) / RFU TUBB4B (11761932_at) / Fold change /veh TUBB4B (11761932_at) / RFU CAPN14 (11732068_a_at) / Fold change /veh CAPN14 (11732068_a_at) / RFU TMCC2 (11721928_a_at) / Fold change /veh TMCC2 (11721928_a_at) / RFU IRGQ (11745062_a_at) / Fold change /veh IRGQ (11745062_a_at) / RFU FAM174B (11720279_a_at) / Fold change /veh FAM174B (11720279_a_at) / RFU TMPRSS4 (11748680_a_at) / Fold change /veh TMPRSS4 (11748680_a_at) / RFU FAM212B (11763350_a_at) / Fold change /veh FAM212B (11763350_a_at) / RFU PLEKHG5 (11743358_a_at) / Fold change /veh PLEKHG5 (11743358_a_at) / RFU ZSCAN30 (11745921_a_at) / Fold change /veh ZSCAN30 (11745921_a_at) / RFU CMKLR1 (11741424_a_at) / Fold change /veh CMKLR1 (11741424_a_at) / RFU LOC101060620 /// MAPK8IP1 (11723275_at) / Fold change /veh LOC101060620 /// MAPK8IP1 (11723275_at) / RFU SPTSSB (11747773_x_at) / Fold change /veh SPTSSB (11747773_x_at) / RFU PRSS12 (11739890_at) / Fold change /veh PRSS12 (11739890_at) / RFU BIN1 (11741810_x_at) / Fold change /veh BIN1 (11741810_x_at) / RFU WNT11 (11732464_a_at) / Fold change /veh WNT11 (11732464_a_at) / RFU C10orf10 (11716521_a_at) / Fold change /veh C10orf10 (11716521_a_at) / RFU C5orf56 (11738089_at) / Fold change /veh C5orf56 (11738089_at) / RFU CYB561 (11721691_x_at) / Fold change /veh CYB561 (11721691_x_at) / RFU ANKRD19P (11752326_a_at) / Fold change /veh ANKRD19P (11752326_a_at) / RFU OR2T12 /// OR2T33 /// OR2T8 (11738714_s_at) / Fold change /veh OR2T12 /// OR2T33 /// OR2T8 (11738714_s_at) / RFU VCAN (11748164_a_at) / Fold change /veh VCAN (11748164_a_at) / RFU JSRP1 (11732532_at) / Fold change /veh JSRP1 (11732532_at) / RFU KRTAP10-11 (11738290_x_at) / Fold change /veh KRTAP10-11 (11738290_x_at) / RFU MYO3A (11730013_a_at) / Fold change /veh MYO3A (11730013_a_at) / RFU EBF3 (11725865_a_at) / Fold change /veh EBF3 (11725865_a_at) / RFU CAMK2N1 (11719241_x_at) / Fold change /veh CAMK2N1 (11719241_x_at) / RFU C5orf56 (11738088_a_at) / Fold change /veh C5orf56 (11738088_a_at) / RFU OLFML3 (11715873_a_at) / Fold change /veh OLFML3 (11715873_a_at) / RFU LOC100653217 /// NTM (11731650_a_at) / Fold change /veh LOC100653217 /// NTM (11731650_a_at) / RFU MAPK11 (11762145_a_at) / Fold change /veh MAPK11 (11762145_a_at) / RFU FIZ1 (11724087_x_at) / Fold change /veh FIZ1 (11724087_x_at) / RFU OASL (11726364_x_at) / Fold change /veh OASL (11726364_x_at) / RFU SOX15 (11748057_x_at) / Fold change /veh SOX15 (11748057_x_at) / RFU CD79A (11719716_a_at) / Fold change /veh CD79A (11719716_a_at) / RFU HIST1H1D (11736915_at) / Fold change /veh HIST1H1D (11736915_at) / RFU CASKIN2 (11723855_a_at) / Fold change /veh CASKIN2 (11723855_a_at) / RFU LOC730098 (11760151_x_at) / Fold change /veh LOC730098 (11760151_x_at) / RFU OR4N2 (11742367_at) / Fold change /veh OR4N2 (11742367_at) / RFU PRRT2 (11749266_a_at) / Fold change /veh PRRT2 (11749266_a_at) / RFU SNX32 (11753110_a_at) / Fold change /veh SNX32 (11753110_a_at) / RFU CDHR5 (11726645_a_at) / Fold change /veh CDHR5 (11726645_a_at) / RFU RCAN1 (11760418_a_at) / Fold change /veh RCAN1 (11760418_a_at) / RFU FAM167A (11723789_a_at) / Fold change /veh FAM167A (11723789_a_at) / RFU FAM26E (11764081_at) / Fold change /veh FAM26E (11764081_at) / RFU ISYNA1 (11749810_s_at) / Fold change /veh ISYNA1 (11749810_s_at) / RFU ACY1 (11761880_at) / Fold change /veh ACY1 (11761880_at) / RFU 11764098_at / Fold change /veh 11764098_at / RFU SAMD14 (11745864_x_at) / Fold change /veh SAMD14 (11745864_x_at) / RFU NPB (11741838_a_at) / Fold change /veh NPB (11741838_a_at) / RFU TMPRSS6 (11731388_a_at) / Fold change /veh TMPRSS6 (11731388_a_at) / RFU KRTAP10-2 (11738614_at) / Fold change /veh KRTAP10-2 (11738614_at) / RFU ARHGAP8 /// PRR5-ARHGAP8 (11727945_x_at) / Fold change /veh ARHGAP8 /// PRR5-ARHGAP8 (11727945_x_at) / RFU KRTAP5-7 /// NADSYN1 (11734609_at) / Fold change /veh KRTAP5-7 /// NADSYN1 (11734609_at) / RFU RASL12 (11751679_a_at) / Fold change /veh RASL12 (11751679_a_at) / RFU CDKN2B (11736163_a_at) / Fold change /veh CDKN2B (11736163_a_at) / RFU PRF1 (11729649_at) / Fold change /veh PRF1 (11729649_at) / RFU, ZNF638 /// ZNF638-IT1 / Fold change vs veh, ZNF638 /// ZNF638-IT1 / RFU, PANK3 / Fold change vs veh, PANK3 / RFU, SH3YL1 / Fold change vs veh, SH3YL1 / RFU, ZEB2 / Fold change vs veh, ZEB2 / RFU, NRIP1 / Fold change vs veh, NRIP1 / RFU, PTTG1IP / Fold change vs veh, PTTG1IP / RFU, CAPN2 / Fold change vs veh, CAPN2 / RFU, MED14 / Fold change vs veh, MED14 / RFU, SNORA58 / Fold change vs veh, SNORA58 / RFU, C1orf63 / Fold change vs veh, C1orf63 / RFU, LRRFIP1 / Fold change vs veh, LRRFIP1 / RFU, NDUFAF7 / Fold change vs veh, NDUFAF7 / RFU, SLC12A2 / Fold change vs veh, SLC12A2 / RFU, IBTK / Fold change vs veh, IBTK / RFU, ESF1 / Fold change vs veh, ESF1 / Fold change vs veh, TMEM50B / RFU, TAOK1 / Fold change vs veh, TAOK1 / RFU, ACBD3 / Fold change vs veh, ACBD3 / RFU, TMA16 / Fold change vs veh, TMA16 / RFU, RWDD3 / Fold change vs veh, RWDD3 / RFU, BCAT1 / Fold change vs veh, BCAT1 / RFU, EDEM3 / Fold change vs veh, EDEM3 / RFU, TMEM33 / Fold change vs veh, TMEM33 / RFU, WDR75 / Fold change vs veh, WDR75 / RFU, AHCTF1 / Fold change vs veh, AHCTF1 / RFU, TFRC / Fold change vs veh, TFRC / RFU, ZDHHC17 / Fold change vs veh, ZDHHC17 / RFU, NOM1 / Fold change vs veh, NOM1 / RFU, ARL8B / Fold change vs veh, ARL8B / RFU, ZBTB11 / Fold change vs veh, ZBTB11 / RFU, TAMM41 / Fold change vs veh, TAMM41 / RFU, KIAA1704 /// LOC100996395 / Fold change vs veh, KIAA1704 /// LOC100996395 / RFU, ING1 / Fold change vs veh, ING1 / RFU, TRMT61B / Fold change vs veh, TRMT61B / RFU, FUBP3 / Fold change vs veh, FUBP3 / RFU, TP53 / Fold change vs veh, TP53 / RFU, TNKS2 / Fold change vs veh, TNKS2 / RFU, ZFP14 / Fold change vs veh, ZFP14 / RFU, ACTR2 / Fold change vs veh, ACTR2 / RFU, PPP3R1 / Fold change vs veh, PPP3R1 / RFU, PIK3R1 / Fold change vs veh, PIK3R1 / RFU, HNRNPA1 / Fold change vs veh, HNRNPA1 / RFU, RNF170 / Fold change vs veh, RNF170 / RFU, ZNF28 / Fold change vs veh, ZNF28 / RFU, RNGTT / Fold change vs veh, RNGTT / RFU, OGT / Fold change vs veh, OGT / RFU, BRD1 / Fold change vs veh, BRD1 / RFU, MARS / Fold change vs veh, MARS / RFU, ZNF655 / Fold change vs veh, ZNF655 / RFU, FAHD1 / Fold change vs veh, FAHD1 / RFU, BDP1 / Fold change vs veh, BDP1 / RFU, LRRCC1 / Fold change vs veh, LRRCC1 / RFU, ARID1A / Fold change vs veh, ARID1A / RFU, ZNF146 / Fold change vs veh, ZNF146 / RFU, ZNF330 / Fold change vs veh, ZNF330 / RFU, GPN3 / Fold change vs veh, GPN3 / RFU, C9orf123 / Fold change vs veh, C9orf123 / RFU, N4BP2L2 / Fold change vs veh, N4BP2L2 / RFU, ARFIP1 / Fold change vs veh, ARFIP1 / RFU, FAM179B / Fold change vs veh, FAM179B / RFU, BCL10 / Fold change vs veh, BCL10 / RFU, UHRF1BP1L / Fold change vs veh, UHRF1BP1L / RFU, BET1 / Fold change vs veh, BET1 / RFU, CNOT2 / Fold change vs veh, CNOT2 / RFU, ZNF268 / Fold change vs veh, ZNF268 / Fold change vs veh, ZNF507 / RFU, DGCR2 / Fold change vs veh, DGCR2 / RFU, WDSUB1 / Fold change vs veh, WDSUB1 / Fold change vs veh, HSP90B1 /// MIR3652 / RFU, ADSS / Fold change vs veh, ADSS / RFU, GK / Fold change vs veh, GK / RFU, ZNF148 / Fold change vs veh, ZNF148 / RFU, TAF9 / Fold change vs veh, TAF9 / RFU, SLC1A5 / Fold change vs veh, SLC1A5 / RFU, SLMO2 / Fold change vs veh, SLMO2 / RFU, ABCC4 / Fold change vs veh, ABCC4 / RFU, LOC101060439 /// RAP1B / Fold change vs veh, LOC101060439 /// RAP1B / RFU, RFX7 / Fold change vs veh, RFX7 / RFU, GTPBP10 / Fold change vs veh, GTPBP10 / RFU, CNEP1R1 / Fold change vs veh, CNEP1R1 / RFU, BIVM-ERCC5 /// ERCC5 / Fold change vs veh, BIVM-ERCC5 /// ERCC5 / RFU, ILF3 / Fold change vs veh, ILF3 / RFU 11762660_at / Fold change /veh 11762660_at / RFU VCAN (11757783_s_at) / Fold change /veh VCAN (11757783_s_at) / RFU DDX43 (11728927_at) / Fold change /veh DDX43 (11728927_at) / RFU KRT8 (11758188_x_at) / Fold change /veh KRT8 (11758188_x_at) / RFU NKD1 (11759106_at) / Fold change /veh NKD1 (11759106_at) / RFU SRD5A1 (11742802_a_at) / Fold change /veh SRD5A1 (11742802_a_at) / RFU TPSAB1 /// TPSB2 (11721975_s_at) / Fold change /veh TPSAB1 /// TPSB2 (11721975_s_at) / RFU GSTM3 (11746129_a_at) / Fold change /veh GSTM3 (11746129_a_at) / RFU IL23R (11737362_x_at) / Fold change /veh IL23R (11737362_x_at) / RFU TMEM51 (11727254_a_at) / Fold change /veh TMEM51 (11727254_a_at) / RFU PIWIL2 (11732686_x_at) / Fold change /veh PIWIL2 (11732686_x_at) / RFU ORM1 (11744905_x_at) / Fold change /veh ORM1 (11744905_x_at) / RFU CCDC152 (11743942_at) / Fold change /veh CCDC152 (11743942_at) / RFU ECM1 (11717891_a_at) / Fold change /veh ECM1 (11717891_a_at) / RFU IL23R (11748794_a_at) / Fold change /veh IL23R (11748794_a_at) / RFU TNFAIP8L3 (11732012_x_at) / Fold change /veh TNFAIP8L3 (11732012_x_at) / RFU MBOAT4 (11741988_at) / Fold change /veh MBOAT4 (11741988_at) / RFU 11764193_at / Fold change /veh 11764193_at / RFU TMEM53 (11763286_at) / Fold change /veh TMEM53 (11763286_at) / RFU MAGEB2 (11727129_at) / Fold change /veh MAGEB2 (11727129_at) / RFU TMEM200A (11744735_a_at) / Fold change /veh TMEM200A (11744735_a_at) / RFU CCDC152 (11751479_a_at) / Fold change /veh CCDC152 (11751479_a_at) / RFU FAM211A (11726209_a_at) / Fold change /veh FAM211A (11726209_a_at) / RFU RGS16 (11746705_a_at) / Fold change /veh RGS16 (11746705_a_at) / RFU VCAN (11755009_s_at) / Fold change /veh VCAN (11755009_s_at) / RFU RHOB (11743442_s_at) / Fold change /veh RHOB (11743442_s_at) / RFU RGS16 (11720943_a_at) / Fold change /veh RGS16 (11720943_a_at) / RFU RGS16 (11720944_at) / Fold change /veh RGS16 (11720944_at) / RFU, VPS4B / Fold change vs veh, VPS4B / RFU, CREB1 / Fold change vs veh, CREB1 / RFU, DNAJC13 / Fold change vs veh, DNAJC13 / RFU, GNAQ / Fold change vs veh, GNAQ / RFU, CDK5R1 / Fold change vs veh, CDK5R1 / RFU, ZRANB3 / Fold change vs veh, ZRANB3 / RFU, CUL4A / Fold change vs veh, CUL4A / RFU, CCNY / Fold change vs veh, CCNY / RFU, UFL1 / Fold change vs veh, UFL1 / RFU, COG3 / Fold change vs veh, COG3 / RFU, DIAPH2 / Fold change vs veh, DIAPH2 / RFU, SKA2 / Fold change vs veh, SKA2 / RFU, AFF3 / Fold change vs veh, AFF3 / RFU, LMF1 / Fold change vs veh, LMF1 / RFU, IPO11 / Fold change vs veh, IPO11 / RFU, DFFB / Fold change vs veh, DFFB / RFU, FOXP1 / Fold change vs veh, FOXP1 / RFU, CARD8 / Fold change vs veh, CARD8 / RFU, STRN3 / Fold change vs veh, STRN3 / RFU, ADK / Fold change vs veh, ADK / RFU, RASSF2 / Fold change vs veh, RASSF2 / RFU, WIPF1 / Fold change vs veh, WIPF1 / RFU, LARP1B / Fold change vs veh, LARP1B / RFU, RASA1 / Fold change vs veh, RASA1 / RFU, RB1 / Fold change vs veh, RB1 / RFU, PPFIA1 / Fold change vs veh, PPFIA1 / RFU, MAT2A / Fold change vs veh, MAT2A / RFU, CCT5 / Fold change vs veh, CCT5 / RFU, WDR92 / Fold change vs veh, WDR92 / RFU, CUX1 / Fold change vs veh, CUX1 / RFU, TTC7A / Fold change vs veh, TTC7A / RFU, TMEM135 / Fold change vs veh, TMEM135 / RFU, DEPTOR / Fold change vs veh, DEPTOR / RFU, CPM / Fold change vs veh, CPM / RFU, DNAJB6 / Fold change vs veh, DNAJB6 / RFU, CACNA2D3 / Fold change vs veh, CACNA2D3 / RFU, DTX4 / Fold change vs veh, DTX4 / RFU, TFCP2 / Fold change vs veh, TFCP2 / RFU, GMCL1 /// GMCL1P1 / Fold change vs veh, GMCL1 /// GMCL1P1 / RFU, AEBP2 / Fold change vs veh, AEBP2 / RFU, SNHG1 /// SNORD22 /// SNORD25 /// SNORD26 /// SNORD27 /// SNORD28 /// SNORD29 /// SNORD31 / Fold change vs veh, SNHG1 /// SNORD22 /// SNORD25 /// SNORD26 /// SNORD27 /// SNORD28 /// SNORD29 /// SNORD31 / Fold change (Aza/veh), C12orf56 (ProbeSet 11735607_a_at) / Fold change (ACY-1035/veh), C12orf56 (ProbeSet 11735607_a_at) / Fold change (Aza/veh), FGFR1OP (ProbeSet 11751329_s_at) / Fold change (ACY-1035/veh), FGFR1OP (ProbeSet 11751329_s_at) / Fold change (Aza/veh), VPS36 (ProbeSet 11739960_a_at) / Fold change (ACY-1035/veh), VPS36 (ProbeSet 11739960_a_at) / RFU SYPL1 (11715823_x_at) / Fold change /veh SYPL1 (11715823_x_at) / RFU IGFBP7 (11715501_s_at) / Fold change /veh IGFBP7 (11715501_s_at) / RFU REEP3 (11722064_at) / Fold change /veh REEP3 (11722064_at) / RFU IGLL1 (11728026_x_at) / Fold change /veh IGLL1 (11728026_x_at): dose or concentration left out as unconfirmed
Details: MV-4-11 cells, 48 hours

## Nc1ccc(-c2cccs2)cc1NC(=O)c1ccc2c(c1)cc(C1CC1)n2CCN1CCOCC1 [ACY-1035]
  RFU SPINT1 (11716480_a_at): 24.20 RFU
